Tests used:
[1] = target: JAK3 (Homo sapiens (Human), UniProt P52333); experiment: Biochemical JAK3 kinase assay (LanthaScreen); conditions: for JAK3 (pKi)-JAK1 (pKi): selectivity JAK3 over JAK1, difference of pKi
How it was run: (§1)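 GST-JAK + GFP-STAT1 peptide, HEPES pH 7.5/MgCl2/EGTA/Brij-35 buffer; cpd preincubation 1 h RT; ATP start, 1 h RT; stop with 10 mM EDTA + 2 nM Tb-anti-pSTAT1; TR-FRET 520/495. 4-parameter IC50 → pKi (Cheng-Prusoff).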

[2] = target: JAK2 (Homo sapiens (Human), UniProt O60674); experiment: Biochemical JAK2 kinase assay (LanthaScreen)
How it was run: as §1

[3] = tested on: Caco-2 cell monolayers; experiment: Caco-2 permeation assay; assay type: in vitro ADME; conditions: 5 μM, A-B direction, with Verapamil (25 μM)
How it was run: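 Passive A-to-B permeability with P-gp inhibited by verapamil (25 μM); compound at 5 μM, n=2. Both compartments sampled at t0 and t120 and quantified by LC-MS/MS, giving apparent permeability in cm/sec from flux, area and concentration.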

[4] = target: JAK1 (Homo sapiens (Human), UniProt P23458); experiment: Biochemical JAK1 kinase assay (LanthaScreen)
How it was run: as §1

[5] = tested on: IL-2 stimulated STAT5 phosphorylation in Tall-1 human T cell line (JAK3); experiment: Cellular JAK3 potency assay: inhibition of IL-2 stimulated pSTAT5 in Tall-1 T cells; assay type: cell-based; conditions: IL-2 stimulated pSTAT5, Tall-1 T cells
How it was run: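 AlphaLISA SureFire Ultra measures STAT5 Tyr694/699 phosphorylation in lysed Tall-1 human T cells. Cells were exposed to compound for 1 h at 37 °C before a 30 min IL-2 challenge (300 ng/ml final). Values are pIC50 means with standard deviation from signal-versus-concentration curves.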

[6] = target: Tyk2 (Homo sapiens (Human), UniProt P29597); experiment: Biochemical Tyk2 kinase assay (LanthaScreen)
How it was run: as §1

Tyk2, sequence (P29597 whole entry): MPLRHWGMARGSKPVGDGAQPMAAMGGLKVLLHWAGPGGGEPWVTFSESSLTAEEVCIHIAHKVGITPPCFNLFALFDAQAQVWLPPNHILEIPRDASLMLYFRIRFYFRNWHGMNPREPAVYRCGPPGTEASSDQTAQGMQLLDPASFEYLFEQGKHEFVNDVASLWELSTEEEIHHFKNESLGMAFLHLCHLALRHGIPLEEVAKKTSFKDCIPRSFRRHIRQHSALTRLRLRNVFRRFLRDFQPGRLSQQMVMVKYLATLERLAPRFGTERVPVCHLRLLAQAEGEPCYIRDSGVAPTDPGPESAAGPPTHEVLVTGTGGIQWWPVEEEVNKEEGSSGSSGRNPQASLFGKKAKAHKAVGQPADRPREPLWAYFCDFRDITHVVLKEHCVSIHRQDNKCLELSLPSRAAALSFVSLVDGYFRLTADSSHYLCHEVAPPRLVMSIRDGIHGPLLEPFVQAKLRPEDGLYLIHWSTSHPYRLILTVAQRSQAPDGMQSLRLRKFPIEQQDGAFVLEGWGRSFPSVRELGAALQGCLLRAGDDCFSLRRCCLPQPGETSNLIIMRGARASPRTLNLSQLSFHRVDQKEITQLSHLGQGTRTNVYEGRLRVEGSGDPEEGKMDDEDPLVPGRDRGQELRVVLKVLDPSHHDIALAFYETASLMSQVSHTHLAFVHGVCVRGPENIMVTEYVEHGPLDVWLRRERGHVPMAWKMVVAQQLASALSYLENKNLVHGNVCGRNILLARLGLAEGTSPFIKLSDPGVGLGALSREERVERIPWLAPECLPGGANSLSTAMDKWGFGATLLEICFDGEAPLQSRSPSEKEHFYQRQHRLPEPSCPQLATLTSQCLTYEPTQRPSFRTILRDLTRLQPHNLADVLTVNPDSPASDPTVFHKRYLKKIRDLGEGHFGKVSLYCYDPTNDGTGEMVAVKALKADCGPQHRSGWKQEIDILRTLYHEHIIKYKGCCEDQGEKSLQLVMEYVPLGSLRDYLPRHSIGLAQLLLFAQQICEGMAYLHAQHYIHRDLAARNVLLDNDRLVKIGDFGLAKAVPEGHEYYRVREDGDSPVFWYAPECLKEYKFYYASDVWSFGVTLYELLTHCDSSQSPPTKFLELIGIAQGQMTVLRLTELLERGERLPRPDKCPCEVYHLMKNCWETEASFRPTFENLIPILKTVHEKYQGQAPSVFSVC
JAK1, sequence (P23458 whole entry): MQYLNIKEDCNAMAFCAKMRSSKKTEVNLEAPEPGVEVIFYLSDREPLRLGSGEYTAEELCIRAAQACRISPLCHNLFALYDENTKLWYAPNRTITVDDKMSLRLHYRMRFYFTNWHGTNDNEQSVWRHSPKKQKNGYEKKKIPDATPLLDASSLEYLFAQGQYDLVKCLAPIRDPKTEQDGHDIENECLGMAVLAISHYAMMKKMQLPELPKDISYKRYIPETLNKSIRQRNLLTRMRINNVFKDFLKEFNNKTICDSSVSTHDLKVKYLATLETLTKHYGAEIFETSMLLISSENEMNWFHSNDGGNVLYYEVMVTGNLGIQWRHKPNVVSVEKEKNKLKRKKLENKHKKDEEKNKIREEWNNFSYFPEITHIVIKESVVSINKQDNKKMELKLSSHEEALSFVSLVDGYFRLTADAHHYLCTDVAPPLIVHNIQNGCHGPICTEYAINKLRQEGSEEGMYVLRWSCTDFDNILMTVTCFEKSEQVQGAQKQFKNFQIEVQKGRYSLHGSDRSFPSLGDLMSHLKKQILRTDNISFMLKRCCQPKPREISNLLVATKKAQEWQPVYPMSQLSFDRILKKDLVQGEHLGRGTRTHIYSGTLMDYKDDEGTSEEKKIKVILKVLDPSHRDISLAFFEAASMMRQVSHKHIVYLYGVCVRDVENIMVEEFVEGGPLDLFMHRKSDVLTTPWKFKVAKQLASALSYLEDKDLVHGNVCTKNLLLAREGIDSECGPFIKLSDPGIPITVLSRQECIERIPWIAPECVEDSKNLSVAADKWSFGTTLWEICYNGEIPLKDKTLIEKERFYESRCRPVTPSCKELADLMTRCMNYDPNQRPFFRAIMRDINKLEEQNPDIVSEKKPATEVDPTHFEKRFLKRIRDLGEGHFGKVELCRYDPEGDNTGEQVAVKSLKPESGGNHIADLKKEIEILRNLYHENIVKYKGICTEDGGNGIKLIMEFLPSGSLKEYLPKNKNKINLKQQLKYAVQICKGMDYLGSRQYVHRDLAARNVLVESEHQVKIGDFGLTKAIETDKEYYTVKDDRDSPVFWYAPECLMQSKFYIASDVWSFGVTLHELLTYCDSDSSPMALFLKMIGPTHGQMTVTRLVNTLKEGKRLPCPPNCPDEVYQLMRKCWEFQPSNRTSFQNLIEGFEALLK
JAK3, sequence (P52333 whole entry): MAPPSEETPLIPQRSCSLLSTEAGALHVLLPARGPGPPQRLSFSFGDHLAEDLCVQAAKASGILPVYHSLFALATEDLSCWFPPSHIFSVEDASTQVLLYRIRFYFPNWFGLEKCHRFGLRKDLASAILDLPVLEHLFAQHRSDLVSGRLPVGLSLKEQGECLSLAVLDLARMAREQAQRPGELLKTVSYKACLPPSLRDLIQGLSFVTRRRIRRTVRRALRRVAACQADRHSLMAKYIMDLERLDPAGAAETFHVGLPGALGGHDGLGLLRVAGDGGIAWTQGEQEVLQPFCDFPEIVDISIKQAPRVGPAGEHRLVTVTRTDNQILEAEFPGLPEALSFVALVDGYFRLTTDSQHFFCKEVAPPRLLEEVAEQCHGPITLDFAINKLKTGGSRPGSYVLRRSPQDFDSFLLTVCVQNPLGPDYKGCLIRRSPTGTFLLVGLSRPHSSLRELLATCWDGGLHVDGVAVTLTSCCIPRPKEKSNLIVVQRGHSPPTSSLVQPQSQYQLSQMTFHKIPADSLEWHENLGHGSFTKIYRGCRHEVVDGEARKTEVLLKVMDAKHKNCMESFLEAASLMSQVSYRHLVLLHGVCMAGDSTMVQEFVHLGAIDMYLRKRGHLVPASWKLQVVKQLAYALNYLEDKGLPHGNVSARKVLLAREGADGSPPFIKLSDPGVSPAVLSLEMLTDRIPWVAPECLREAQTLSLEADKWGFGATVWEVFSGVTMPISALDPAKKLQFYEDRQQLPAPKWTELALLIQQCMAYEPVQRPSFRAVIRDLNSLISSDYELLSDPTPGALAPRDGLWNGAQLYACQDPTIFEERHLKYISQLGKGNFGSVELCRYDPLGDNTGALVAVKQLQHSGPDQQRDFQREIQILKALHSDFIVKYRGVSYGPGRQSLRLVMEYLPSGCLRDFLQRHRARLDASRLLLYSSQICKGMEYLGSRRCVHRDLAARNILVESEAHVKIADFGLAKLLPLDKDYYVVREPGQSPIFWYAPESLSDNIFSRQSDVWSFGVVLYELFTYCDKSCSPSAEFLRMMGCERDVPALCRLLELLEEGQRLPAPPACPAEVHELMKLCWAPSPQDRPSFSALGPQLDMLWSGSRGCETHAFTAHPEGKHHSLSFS
JAK2, sequence (O60674 whole entry): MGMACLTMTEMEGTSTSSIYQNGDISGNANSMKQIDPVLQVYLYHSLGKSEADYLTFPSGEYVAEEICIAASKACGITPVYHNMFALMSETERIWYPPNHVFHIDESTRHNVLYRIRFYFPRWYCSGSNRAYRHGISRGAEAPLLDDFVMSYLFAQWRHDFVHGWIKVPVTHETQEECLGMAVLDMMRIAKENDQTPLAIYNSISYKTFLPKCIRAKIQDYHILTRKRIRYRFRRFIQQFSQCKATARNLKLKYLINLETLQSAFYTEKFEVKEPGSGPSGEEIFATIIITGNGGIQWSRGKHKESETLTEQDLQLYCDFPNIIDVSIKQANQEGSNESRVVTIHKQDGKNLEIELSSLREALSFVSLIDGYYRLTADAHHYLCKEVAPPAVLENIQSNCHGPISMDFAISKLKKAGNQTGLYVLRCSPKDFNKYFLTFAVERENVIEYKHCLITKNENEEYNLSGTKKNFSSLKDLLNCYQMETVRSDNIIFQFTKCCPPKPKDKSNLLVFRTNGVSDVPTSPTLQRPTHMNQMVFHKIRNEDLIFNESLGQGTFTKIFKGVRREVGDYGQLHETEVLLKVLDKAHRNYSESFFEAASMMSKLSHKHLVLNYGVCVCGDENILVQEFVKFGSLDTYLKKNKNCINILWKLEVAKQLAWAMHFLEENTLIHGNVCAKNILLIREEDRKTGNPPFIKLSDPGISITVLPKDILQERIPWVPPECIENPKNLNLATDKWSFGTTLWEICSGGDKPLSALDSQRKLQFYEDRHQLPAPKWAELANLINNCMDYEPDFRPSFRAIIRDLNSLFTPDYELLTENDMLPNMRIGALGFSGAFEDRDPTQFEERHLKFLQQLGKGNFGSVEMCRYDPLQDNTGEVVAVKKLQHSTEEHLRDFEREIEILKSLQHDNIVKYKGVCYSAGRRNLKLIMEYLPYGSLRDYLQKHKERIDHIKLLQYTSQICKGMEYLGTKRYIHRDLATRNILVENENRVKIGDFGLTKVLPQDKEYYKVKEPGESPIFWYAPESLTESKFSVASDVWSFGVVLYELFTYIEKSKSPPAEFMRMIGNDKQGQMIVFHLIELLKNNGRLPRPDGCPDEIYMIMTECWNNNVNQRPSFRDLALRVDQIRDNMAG

Row | Compound | JAK 3 (pKi) [1] | JAK3 (pKi)-JAK1 (pKi) [1] | JAK 2 (pKi) [2] | Caco Kp [3] | JAK 1 (pKi) [4] | Tall-1 (pIC50) [5] | Tyk 2 (pKi) [6]
1 | C=CC(=O)N1CCN(CCn2c(=O)ccc3cnc(Nc4ccc(CN5CCOCC5)cc4)nc32)CC1 [Example 80] | B (B represents pKi value between 9 and 10 (Ki between 1 nM and 0.1 nM)) | A (A represents a value of 3 or above) | E (E represents a pKi value of 7 or below (Ki of 100 nM or above)) | C (C represents a value between 10×10^−6 and 30×10^−6 cm/sec) | E (E represents a pKi value of 7 or below (Ki of 100 nM or above)) | B (B represents a pC50 value between 6.7 (included) and 7.5 (IC50 between 200 nM and 32 nM)) | E (E represents a pKi value of 7 or below (Ki of 100 nM or above))
2 | C=CC(=O)N1CC(CCn2c(=O)ccc3cnc(Nc4ccc5[nH]ncc5c4)nc32)C1 [Example 82] | B (B represents pKi value between 9 and 10 (Ki between 1 nM and 0.1 nM)) | A (A represents a value of 3 or above) | E (E represents a pKi value of 7 or below (Ki of 100 nM or above)) | A (A represents a value below 5×10^−6 cm/sec) | E (E represents a pKi value of 7 or below (Ki of 100 nM or above)) | C (C represents a pIC50 value between 6 and 6.7 (IC50 between 1 μM and 200 nM)) | E (E represents a pKi value of 7 or below (Ki of 100 nM or above))
3 | C=CC(=O)N1CC(CCn2c(=O)ccc3cnc(Nc4ccc5cn[nH]c5c4)nc32)C1 [Example 83] | B (B represents pKi value between 9 and 10 (Ki between 1 nM and 0.1 nM)) | A (A represents a value of 3 or above) | E (E represents a pKi value of 7 or below (Ki of 100 nM or above)) | A (A represents a value below 5×10^−6 cm/sec) | E (E represents a pKi value of 7 or below (Ki of 100 nM or above)) | C (C represents a pIC50 value between 6 and 6.7 (IC50 between 1 μM and 200 nM)) | E (E represents a pKi value of 7 or below (Ki of 100 nM or above))
4 | C=CC(=O)N1CC(CCn2c(=O)ccc3cnc(Nc4cccc(CN5CCSCC5)c4)nc32)C1 [Example 85] | A (A represents a pKi value≥10 (Ki≤0.1 nM)) | A (A represents a value of 3 or above) | E (E represents a pKi value of 7 or below (Ki of 100 nM or above)) | C (C represents a value between 10×10^−6 and 30×10^−6 cm/sec) | E (E represents a pKi value of 7 or below (Ki of 100 nM or above)) | B (B represents a pC50 value between 6.7 (included) and 7.5 (IC50 between 200 nM and 32 nM)) | E (E represents a pKi value of 7 or below (Ki of 100 nM or above))
5 | C=CC(=O)N1CC(CCn2c(=O)ccc3cnc(Nc4ccc(CN5CCSCC5)cc4)nc32)C1 [Example 86] | B (B represents pKi value between 9 and 10 (Ki between 1 nM and 0.1 nM)) | A (A represents a value of 3 or above) | E (E represents a pKi value of 7 or below (Ki of 100 nM or above)) | C (C represents a value between 10×10^−6 and 30×10^−6 cm/sec) | E (E represents a pKi value of 7 or below (Ki of 100 nM or above)) | B (B represents a pC50 value between 6.7 (included) and 7.5 (IC50 between 200 nM and 32 nM)) | E (E represents a pKi value of 7 or below (Ki of 100 nM or above))
6 | C=CC(=O)N1CC(CCn2c(=O)ccc3cnc(Nc4cccc(CN(C)C)c4)nc32)C1 [Example 90] | B (B represents pKi value between 9 and 10 (Ki between 1 nM and 0.1 nM)) | A (A represents a value of 3 or above) | E (E represents a pKi value of 7 or below (Ki of 100 nM or above)) | A (A represents a value below 5×10^−6 cm/sec) | E (E represents a pKi value of 7 or below (Ki of 100 nM or above)) | B (B represents a pC50 value between 6.7 (included) and 7.5 (IC50 between 200 nM and 32 nM)) | E (E represents a pKi value of 7 or below (Ki of 100 nM or above))
7 | C=CC(=O)N1CC(CCn2c(=O)ccc3cnc(Nc4ccc(N(C)C)cc4)nc32)C1 [Example 91] | A (A represents a pKi value≥10 (Ki≤0.1 nM)) | A (A represents a value of 3 or above) | E (E represents a pKi value of 7 or below (Ki of 100 nM or above)) | D (D represents a value over 30×10^−6 cm/sec) | E (E represents a pKi value of 7 or below (Ki of 100 nM or above)) | B (B represents a pC50 value between 6.7 (included) and 7.5 (IC50 between 200 nM and 32 nM)) | E (E represents a pKi value of 7 or below (Ki of 100 nM or above))
8 | C=CC(=O)N1CC(CCn2c(=O)ccc3cnc(Nc4ccc(N5CCN(S(C)(=O)=O)CC5)cc4)nc32)C1 [Example 94] | A (A represents a pKi value≥10 (Ki≤0.1 nM)) | A (A represents a value of 3 or above) | E (E represents a pKi value of 7 or below (Ki of 100 nM or above)) | A (A represents a value below 5×10^−6 cm/sec) | E (E represents a pKi value of 7 or below (Ki of 100 nM or above)) | A (A represents a pIC50 value≥7.5 (IC50≤32 nM)) | E (E represents a pKi value of 7 or below (Ki of 100 nM or above))
9 | C=CC(=O)N1CC(CCn2c(=O)ccc3cnc(Nc4ccc(N5CCN(C(=S)N(C)C)CC5)cc4)nc32)C1 [Example 95] | A (A represents a pKi value≥10 (Ki≤0.1 nM)) | A (A represents a value of 3 or above) | E (E represents a pKi value of 7 or below (Ki of 100 nM or above)) | A (A represents a value below 5×10^−6 cm/sec) | E (E represents a pKi value of 7 or below (Ki of 100 nM or above)) | A (A represents a pIC50 value≥7.5 (IC50≤32 nM)) | E (E represents a pKi value of 7 or below (Ki of 100 nM or above))
10 | C=CC(=O)N1CC(CCn2c(=O)ccc3cnc(Nc4ccc(N5CCN(S(=O)(=O)NC)CC5)cc4)nc32)C1 [Example 96] | A (A represents a pKi value≥10 (Ki≤0.1 nM)) | A (A represents a value of 3 or above) | E (E represents a pKi value of 7 or below (Ki of 100 nM or above)) | A (A represents a value below 5×10^−6 cm/sec) | E (E represents a pKi value of 7 or below (Ki of 100 nM or above)) | B (B represents a pC50 value between 6.7 (included) and 7.5 (IC50 between 200 nM and 32 nM)) | E (E represents a pKi value of 7 or below (Ki of 100 nM or above))
11 | C=CC(=O)N1CC(CCn2c(=O)ccc3cnc(Nc4ccc(N5CCN(C(=O)SC(C)(C)C)CC5)cc4)nc32)C1 [Example 98] | A (A represents a pKi value≥10 (Ki≤0.1 nM)) | A (A represents a value of 3 or above) | E (E represents a pKi value of 7 or below (Ki of 100 nM or above)) | A (A represents a value below 5×10^−6 cm/sec) | E (E represents a pKi value of 7 or below (Ki of 100 nM or above)) | B (B represents a pC50 value between 6.7 (included) and 7.5 (IC50 between 200 nM and 32 nM)) | E (E represents a pKi value of 7 or below (Ki of 100 nM or above))

Source: patent publication US11697648B2, “Fused pyrimidine pyridinone compounds as JAK inhibitors” (THERAVANCE BIOPHARMA R&D IP, LLC, priority 2019, dated 2023)
